According to ChEMBL document CHEMBL5518227, “Discovery of JNJ-1802, a First-in-Class Pan-Serotype Dengue Virus NS4B Inhibitor” (J Med Chem, 2024):

Assays:
[1] = Mutagenicity in Salmonella typhimurium TA7003 in presence or absence of S9 fraction pretreated for 90 mins measured after 48 hrs in dark by AMES test; format: toxicity; conditions: salmonella enterica subsp. enterica serovar typhimurium, s9, 49.5 h; time 2970 min
[2] = Volume of distribution at steady state in overnight fasted Beagle dog at 0.51 mg/kg, iv measured upto 24 hrs by LC-MS/MS analysis; format: ADME, organism-based, Canis lupus familiaris; conditions: in vivo, read-out: Vdss
[3] = target: T1, Cytochrome P450 2C8 (Homo sapiens, UniProt P10632); assay: Inhibition of human CYP2C8 preincubated for 5 mins followed by NADPH addition measured after 5 to 30 mins by LC-MS analysis; format: ADME
T1 sequence (P10632 whole entry): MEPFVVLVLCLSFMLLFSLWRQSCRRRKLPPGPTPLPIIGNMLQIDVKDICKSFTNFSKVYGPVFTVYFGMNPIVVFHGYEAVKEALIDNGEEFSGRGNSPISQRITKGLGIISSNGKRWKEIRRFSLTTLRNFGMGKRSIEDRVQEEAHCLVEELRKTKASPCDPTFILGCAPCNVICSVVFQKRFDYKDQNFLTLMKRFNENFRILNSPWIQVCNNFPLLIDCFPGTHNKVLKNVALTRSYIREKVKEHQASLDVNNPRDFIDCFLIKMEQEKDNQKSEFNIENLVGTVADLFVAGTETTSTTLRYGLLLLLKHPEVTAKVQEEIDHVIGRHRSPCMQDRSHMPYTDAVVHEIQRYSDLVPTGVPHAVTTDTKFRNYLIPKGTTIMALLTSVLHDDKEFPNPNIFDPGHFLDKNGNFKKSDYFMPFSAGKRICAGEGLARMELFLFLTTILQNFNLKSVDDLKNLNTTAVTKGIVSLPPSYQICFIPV

[4] = Metabolic stability in human liver microsomes assessed as intrinsic clearance preincubated for 5 mins followed by NADPH addition measured upto 60 mins by LC-MS/MS analysis; format: ADME, Microsome; conditions: time < 65 min, read-out: CLH
[5] = Volume of distribution at steady state in 8 hrs fasted cynomolgus monkey […] at 1 mg/kg, iv measured upto 24 hrs by LC-MS/MS analysis; format: ADME, organism-based, Macaca fascicularis; conditions: in vivo, read-out: Vdss
[6] = Cytotoxicity against african green monkey Vero cells by ATPlite cell viability luminescence assay; format: toxicity, cell-based; conditions: chlorocebus sabaeus
[7] = Mutagenicity in Salmonella typhimurium TA7004 in presence or absence of S9 fraction pretreated for 90 mins measured after 48 hrs in dark by AMES test; format: toxicity; conditions: salmonella enterica subsp. enterica serovar typhimurium, s9, 49.5 h; time 2970 min
[8] = Clearance in 8 hrs fasted cynomolgus monkey at 1 mg/kg, iv measured upto 24 hrs by LC-MS/MS analysis; format: ADME, organism-based, Macaca fascicularis; conditions: in vivo
[9] = Thermodynamic solubility of the compound in aqueous buffer at pH 7.4 measured after 24 hrs by UPLC analysis; format: physicochemical; conditions: read-out: Therm_solubility
[10] = test system: dengue virus type 1; assay: Antiviral activity against DENV-1 TC974#666 infected in african green monkey Vero cells incubated for 24 hrs measured after 3 days post infection by RT-PCR analysis; format: functional, organism-based; conditions: Dengue virus, TC974#666, Vero; read-out: EC50
[11] = target: T2, Cytochrome P450 1A2 (Homo sapiens, UniProt P05177); assay: Inhibition of human CYP1A2 preincubated for 5 mins followed by NADPH addition measured after 5 to 30 mins by LC-MS analysis; format: ADME
T2 sequence (P05177 whole entry): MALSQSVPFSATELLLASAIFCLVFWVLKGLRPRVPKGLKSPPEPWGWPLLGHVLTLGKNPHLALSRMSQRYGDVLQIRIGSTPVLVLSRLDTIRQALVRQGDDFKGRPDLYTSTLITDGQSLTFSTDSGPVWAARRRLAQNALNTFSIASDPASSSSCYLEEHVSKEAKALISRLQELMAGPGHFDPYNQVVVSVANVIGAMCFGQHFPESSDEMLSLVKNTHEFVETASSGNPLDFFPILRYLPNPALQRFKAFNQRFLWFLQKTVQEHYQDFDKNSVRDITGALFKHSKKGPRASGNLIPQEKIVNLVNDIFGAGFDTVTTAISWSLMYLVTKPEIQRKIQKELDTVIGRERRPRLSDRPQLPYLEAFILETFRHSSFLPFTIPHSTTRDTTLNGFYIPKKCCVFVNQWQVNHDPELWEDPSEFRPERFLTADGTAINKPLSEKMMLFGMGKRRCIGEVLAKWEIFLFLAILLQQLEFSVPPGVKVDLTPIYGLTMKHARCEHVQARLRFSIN

[12] = target: Voltage-gated inwardly rectifying potassium channel KCNH2 (Homo sapiens, UniProt Q12809); assay: Inhibition of human ERG stably expressed in CHO cells by automated Qpatch electrophysiological assay; format: toxicity, cell-based
Sequence of Voltage-gated inwardly rectifying potassium channel KCNH2 (Q12809 whole entry): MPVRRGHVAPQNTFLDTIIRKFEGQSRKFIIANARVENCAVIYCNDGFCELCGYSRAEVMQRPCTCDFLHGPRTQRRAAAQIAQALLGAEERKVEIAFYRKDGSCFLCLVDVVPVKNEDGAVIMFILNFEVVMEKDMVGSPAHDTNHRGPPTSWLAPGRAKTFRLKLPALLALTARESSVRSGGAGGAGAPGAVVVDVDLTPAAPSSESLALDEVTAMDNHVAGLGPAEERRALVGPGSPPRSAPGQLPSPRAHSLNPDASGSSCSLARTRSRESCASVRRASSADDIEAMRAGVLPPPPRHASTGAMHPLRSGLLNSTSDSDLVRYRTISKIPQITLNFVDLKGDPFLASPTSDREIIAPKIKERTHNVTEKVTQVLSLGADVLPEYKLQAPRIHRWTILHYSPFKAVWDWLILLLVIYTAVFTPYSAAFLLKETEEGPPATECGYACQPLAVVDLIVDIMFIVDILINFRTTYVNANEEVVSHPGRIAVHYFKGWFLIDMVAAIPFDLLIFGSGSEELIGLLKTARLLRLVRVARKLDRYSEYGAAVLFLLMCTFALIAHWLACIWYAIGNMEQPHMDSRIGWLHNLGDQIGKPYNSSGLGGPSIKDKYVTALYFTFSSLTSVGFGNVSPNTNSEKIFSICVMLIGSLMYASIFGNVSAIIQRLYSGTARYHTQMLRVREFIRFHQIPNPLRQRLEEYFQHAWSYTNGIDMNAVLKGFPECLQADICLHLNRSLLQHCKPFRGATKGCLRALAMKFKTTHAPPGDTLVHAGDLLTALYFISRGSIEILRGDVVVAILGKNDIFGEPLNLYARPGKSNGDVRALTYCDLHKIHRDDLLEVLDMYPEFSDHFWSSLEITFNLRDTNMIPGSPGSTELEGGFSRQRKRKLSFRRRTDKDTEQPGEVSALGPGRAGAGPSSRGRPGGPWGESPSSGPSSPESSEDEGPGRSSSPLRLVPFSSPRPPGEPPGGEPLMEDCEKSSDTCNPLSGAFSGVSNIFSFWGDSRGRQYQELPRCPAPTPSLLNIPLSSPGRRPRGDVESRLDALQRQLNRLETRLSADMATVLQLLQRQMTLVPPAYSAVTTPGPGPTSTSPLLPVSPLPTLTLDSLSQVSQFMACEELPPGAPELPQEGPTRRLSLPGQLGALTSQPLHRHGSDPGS

[13] = AUC in 8 hrs fasted cynomolgus monkey assessed as liver blood flow at 3 mg/kg, po measured upto 24 hrs by LC-MS/MS analysis; format: ADME, organism-based, Macaca fascicularis; conditions: in vivo
[14] = Elimination half life in Sprague-Dawley rat at 2.5 mg/kg, iv measured after 24 hrs by LC-MS/MS analysis; format: ADME, organism-based; conditions: in vivo, read-out: beta t1/2 (converted)
[15] = Volume of distribution at steady state in CD-1 mouse at 2.5 mg/kg, iv measured upto 24 hrs by LC-MS/MS analysis; format: ADME, organism-based; conditions: in vivo, read-out: Vdss
[16] = test system: mouse P-gp; assay: Efflux ratio of permeability from basolateral to apical side over apical to basolateral side in pig LLC-PK1 cells transfected with mouse P-gp at 1 uM measured upto 120 mins; format: ADME, cell-based, Sus scrofa
[17] = Plasma protein binding in human at 5 uM measured after 24 hrs by LC-MS/MS analysis; format: ADME, cell-free; conditions: read-out: PPB (converted)
[18] = AUC in overnight fasted Beagle dog at 2.37 mg/kg, po measured upto 24 hrs by LC-MS/MS analysis; format: ADME, organism-based, Canis lupus familiaris; conditions: in vivo
[19] = Clearance in Sprague-Dawley rat at 2.5 mg/kg, iv measured after 24 hrs by LC-MS/MS analysis; format: ADME, organism-based; conditions: in vivo
[20] = Oral bioavailability in overnight fasted Beagle dog at 2.37 mg/kg measured upto 24 hrs by LC-MS/MS analysis; format: ADME, organism-based, Canis lupus familiaris; conditions: in vivo
[21] = test system: dengue virus type 2; assay: Antiviral activity against DENV-2 16681 expressing eGFP infected in african green monkey Vero cells incubated with cells for 24 hrs followed by viral infection measured after 3 days by laser microscopic analysis; format: functional, organism-based; conditions: Dengue virus, 16681, Vero
[22] = Mutagenicity in Salmonella typhimurium TA98 in presence or absence of S9 fraction pretreated for 90 mins measured after 48 hrs in dark by AMES test; format: toxicity; conditions: salmonella enterica subsp. enterica serovar typhimurium, s9, 49.5 h; time 2970 min
[23] = Cmax in Sprague-Dawley rat at 10 mg/kg, po measured after 24 to 48 hrs by LC-MS/MS analysis; format: ADME, organism-based; conditions: in vivo, time 24-48 hrs
[24] = Elimination half life in CD-1 mouse at 2.5 mg/kg, iv measured upto 24 hrs by LC-MS/MS analysis; format: ADME, organism-based; conditions: in vivo, read-out: beta t1/2 (converted)
[25] = Clearance in overnight fasted Beagle dog assessed as liver blood flow at 0.51 mg/kg, iv measured upto 24 hrs by LC-MS/MS analysis; format: ADME, organism-based, Canis lupus familiaris; conditions: in vivo
[26] = test system: dengue virus type 2; assay: In vivo antiviral activity against DENV-2/RL infected in AG129 mouse assessed as increase in efficacy administered as po bid for 3 days; format: functional, organism-based; conditions: dose 0.2-60 mg/kg/day, time 3.0 day

Vd [2]: 3.1 L/kg
IC50 [3]: 7400 nM
microsomal CLint [4]: < 8 µL/min/mg
Vd [5]: 1.64 L/kg
clearance [8]: 2.45 mL/min/kg
solubility thermodynamic at 24 h [9]: < 1 µg/mL
EC50 [10]: 0.2 nM
IC50 [11]: > 30000 nM
AUC at 24 h [13]: 8970 ng·h/mL
half-life [14]: 12.4 h
Vd [15]: 2.5 L/kg
efflux ratio at 2 h, 1 µM [16]: ~4
fraction unbound at 24 h, 5 µM [17]: 0.0014
AUC at 24 h [18]: 2940 ng·h/mL
clearance [19]: 4.9 mL/min/kg
bioavailability [20]: 51%
EC50 [21]: 0.057 nM
Cmax [23]: 629 ng/mL
half-life [24]: 6.2 h
LBF [25]: 21%
SMILES: COc1cc(N[C@H](C(=O)c2c[nH]c3ccc(OC(F)(F)F)cc23)c2ccc(Cl)cc2OC)cc(S(C)(=O)=O)c1 [MOSNODENVIR]
Activity [1]: Non-Toxic
CC50 [6]: 2600 nM
Activity [7]: Non-Toxic
IC50 [12]: > 30000 nM
Activity [22]: Non-Toxic
Activity [26]: Dose-Dependent Effect
